Target: T1, Androgen Receptor (AR) protein (Homo sapiens, UniProt P10275, T878A)
T1 construct: endogenous in cells; host or cells: LNCaP
Experiment: Androgen Receptor (AR) protein degradation assay in LNCaP cells, western blotting
Type: cell-based
Conditions: 20 h; for inhibition at 0.01 µM: 0.01 μM compound; for inhibition at 0.1 µM: 0.1 μM compound; for inhibition at 1 µM: 1 μM compound
Summary of the method: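 AR protein level was detected by western blot (ECL) against GAPDH or β-actin controls, with 8 μg lysate protein loaded per lane after BCA quantification. Lysates came from LNCaP cells exposed to test compound for 20 h, following 3 days of growth in RPMI/10% FBS.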

T1 sequence (P10275 whole entry T878A): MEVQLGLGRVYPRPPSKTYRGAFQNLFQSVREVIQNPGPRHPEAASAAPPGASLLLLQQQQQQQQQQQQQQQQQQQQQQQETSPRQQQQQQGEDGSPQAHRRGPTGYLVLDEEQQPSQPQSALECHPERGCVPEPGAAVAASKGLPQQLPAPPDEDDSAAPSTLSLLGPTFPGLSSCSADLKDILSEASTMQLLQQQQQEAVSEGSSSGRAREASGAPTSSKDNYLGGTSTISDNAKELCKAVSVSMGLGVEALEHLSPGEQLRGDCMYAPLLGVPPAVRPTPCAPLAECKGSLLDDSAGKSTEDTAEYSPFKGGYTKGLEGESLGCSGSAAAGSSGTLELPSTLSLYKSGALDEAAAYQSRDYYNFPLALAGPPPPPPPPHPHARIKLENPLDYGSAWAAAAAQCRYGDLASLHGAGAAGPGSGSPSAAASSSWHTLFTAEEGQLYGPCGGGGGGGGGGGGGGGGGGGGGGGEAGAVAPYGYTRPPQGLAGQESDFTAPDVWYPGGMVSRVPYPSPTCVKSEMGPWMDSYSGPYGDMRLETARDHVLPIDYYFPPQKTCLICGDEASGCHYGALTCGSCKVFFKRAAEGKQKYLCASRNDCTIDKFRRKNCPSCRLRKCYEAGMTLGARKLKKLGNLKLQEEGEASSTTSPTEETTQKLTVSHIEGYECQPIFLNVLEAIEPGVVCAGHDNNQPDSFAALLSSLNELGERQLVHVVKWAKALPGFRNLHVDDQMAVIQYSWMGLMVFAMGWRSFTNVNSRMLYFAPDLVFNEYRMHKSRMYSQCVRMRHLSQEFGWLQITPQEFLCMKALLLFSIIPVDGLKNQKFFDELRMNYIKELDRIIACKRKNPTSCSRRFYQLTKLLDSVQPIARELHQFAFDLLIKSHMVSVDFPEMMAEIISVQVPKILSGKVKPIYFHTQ
T1 sequence (Q96SW2 whole entry partner): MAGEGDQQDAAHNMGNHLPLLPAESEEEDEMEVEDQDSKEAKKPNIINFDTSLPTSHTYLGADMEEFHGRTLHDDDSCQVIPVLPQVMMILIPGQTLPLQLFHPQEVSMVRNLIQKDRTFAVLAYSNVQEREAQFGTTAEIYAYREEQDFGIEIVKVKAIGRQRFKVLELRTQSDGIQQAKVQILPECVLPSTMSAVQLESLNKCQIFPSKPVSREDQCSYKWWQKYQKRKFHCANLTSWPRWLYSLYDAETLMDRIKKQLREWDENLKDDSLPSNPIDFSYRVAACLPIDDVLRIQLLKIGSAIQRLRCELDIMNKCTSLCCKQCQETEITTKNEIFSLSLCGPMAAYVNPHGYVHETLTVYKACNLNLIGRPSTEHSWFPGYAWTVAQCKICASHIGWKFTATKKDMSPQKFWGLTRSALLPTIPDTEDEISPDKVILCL

N#Cc1ccc(N2CCC(C(=O)Nc3ccc(N4CCC(CN5CCN(C6CCN(c7ccc8c(c7)CN(C7CCC(=O)NC7=O)C8=O)CC6)CC5)CC4)cn3)CC2)cc1C(F)(F)F (stereo not drawn) [Example 140, 1-(4-cyano-3-(trifluoromethyl)phenyl)-N-(5-(4-((4-(1-(2-(2,6-dioxopiperidin-3-yl)-1-oxoisoindolin-5-yl)piperidin-4-yl)piperazin-1-yl)methyl)piperidin-1-yl)pyridin-2-yl)piperidine-4-carboxamide]
inhibition at 0.01 µM: 87% | inhibition at 0.1 µM: 98% | inhibition at 1 µM: 95%

N#Cc1ccc(N2CCC(F)(C(=O)Nc3ccc(N4CCC(CN5CCN(C6CCN(c7ccc8c(c7)CN(C7CCC(=O)NC7=O)C8=O)CC6)CC5)CC4)cn3)CC2)cc1C(F)(F)F (stereo not drawn) [Example 141, 1-(4-cyano-3-(trifluoromethyl)phenyl)-N-(5-(4-((4-(1-(2-(2,6-dioxopiperidin-3-yl)-1-oxoisoindolin-5-yl)piperidin-4-yl)piperazin-1-yl)methyl)piperidin-1-yl)pyridin-2-yl)-4-fluoropiperidine-4-carboxamide]
inhibition at 0.01 µM: 66% | inhibition at 0.1 µM: 92% | inhibition at 1 µM: 90%

N#Cc1ncc(N2CCC(C(=O)Nc3ccc(N4CCC(CN5CCN(C6CCN(c7ccc8c(c7)CN(C7CCC(=O)NC7=O)C8=O)CC6)CC5)CC4)cn3)CC2)cc1C(F)(F)F (stereo not drawn) [Example 142, 1-(6-cyano-5-(trifluoromethyl)pyridin-3-yl)-N-(5-(4-((4-(1-(2-(2,6-dioxopiperidin-3-yl)-1-oxoisoindolin-5-yl)piperidin-4-yl)piperazin-1-yl)methyl)piperidin-1-yl)pyridin-2-yl)piperidine-4-carboxamide]
inhibition at 0.01 µM: 55% | inhibition at 0.1 µM: 87% | inhibition at 1 µM: 83%

N#Cc1ccc(N2CCC(C(=O)Nc3ccc(N4CCC(CN5CCN(CC6CCN(c7ccc8c(c7)CN(C7CCC(=O)NC7=O)C8=O)CC6)CC5)CC4)cn3)CC2)cc1C(F)(F)F (stereo not drawn) [Example 143, 1-(4-cyano-3-(trifluoromethyl)phenyl)-N-(5-(4-((4-((1-(2-(2,6-dioxopiperidin-3-yl)-1-oxoisoindolin-5-yl)piperidin-4-yl)methyl)piperazin-1-yl)methyl)piperidin-1-yl)pyridin-2-yl)piperidine-4-carboxamide]
inhibition at 0.01 µM: 73% | inhibition at 0.1 µM: 97% | inhibition at 1 µM: 97%

N#Cc1ccc(N2CCC(F)(C(=O)Nc3ccc(N4CCC(CN5CCN(CC6CCN(c7ccc8c(c7)CN(C7CCC(=O)NC7=O)C8=O)CC6)CC5)CC4)cn3)CC2)cc1C(F)(F)F (stereo not drawn) [Example 144, 1-(4-cyano-3-(trifluoromethyl)phenyl)-N-(5-(4-((4-((1-(2-(2,6-dioxopiperidin-3-yl)-1-oxoisoindolin-5-yl)piperidin-4-yl)methyl)piperazin-1-yl)methyl)piperidin-1-yl)pyridin-2-yl)-4-fluoropiperidine-4-carboxamide]
inhibition at 0.01 µM: 43% | inhibition at 0.1 µM: 84% | inhibition at 1 µM: 95%

N#Cc1ncc(N2CCC(C(=O)Nc3ccc(N4CCC(CN5CCN(CC6CCN(c7ccc8c(c7)CN(C7CCC(=O)NC7=O)C8=O)CC6)CC5)CC4)cn3)CC2)cc1C(F)(F)F (stereo not drawn) [Example 145, 1-(6-cyano-5-(trifluoromethyl)pyridin-3-yl)-N-(5-(4-((4-((1-(2-(2,6-dioxopiperidin-3-yl)-1-oxoisoindolin-5-yl)piperidin-4-yl)methyl)piperazin-1-yl)methyl)piperidin-1-yl)pyridin-2-yl)piperidine-4-carboxamide]
inhibition at 0.01 µM: 20% | inhibition at 0.1 µM: 84% | inhibition at 1 µM: 88%

N#Cc1ccc(N2CCC(C(=O)Nc3ccc(N4CCC(CN5CCC(Oc6ccc7c(c6)C(=O)N(C6CCC(=O)NC6=O)C7=O)CC5)CC4)cn3)CC2)cc1C(F)(F)F (stereo not drawn) [Example 146, 1-(4-cyano-3-(trifluoromethyl)phenyl)-N-(5-(4-((4-((2-(2,6-dioxopiperidin-3-yl)-1,3-dioxoisoindolin-5-yl)oxy)piperidin-1-yl)methyl)piperidin-1-yl)pyridin-2-yl)piperidine-4-carboxamide]
inhibition at 0.01 µM: 67% | inhibition at 0.1 µM: 97% | inhibition at 1 µM: 98%

N#Cc1ccc(N2CCC(C(=O)Nc3ccc(N4CCC(CN5CCC(COc6ccc7c(c6)C(=O)N(C6CCC(=O)NC6=O)C7=O)CC5)CC4)cn3)CC2)cc1C(F)(F)F (stereo not drawn) [Example 147, 1-(4-cyano-3-(trifluoromethyl)phenyl)-N-(5-(4-((4-(((2-(2,6-dioxopiperidin-3-yl)-1,3-dioxoisoindolin-5-yl)oxy)methyl)piperidin-1-yl)methyl)piperidin-1-yl)pyridin-2-yl)piperidine-4-carboxamide]
inhibition at 0.01 µM: 68% | inhibition at 0.1 µM: 96% | inhibition at 1 µM: 97%

N#Cc1ccc(N2CCC(C(=O)Nc3ccc(N4CC(CN5CCC(Oc6ccc7c(c6)C(=O)N(C6CCC(=O)NC6=O)C7=O)CC5)C4)cn3)CC2)cc1C(F)(F)F (stereo not drawn) [Example 148, 1-(4-cyano-3-(trifluoromethyl)phenyl)-N-(5-(3-((4-((2-(2,6-dioxopiperidin-3-yl)-1,3-dioxoisoindolin-5-yl)oxy)piperidin-1-yl)methyl)azetidin-1-yl)pyridin-2-yl)piperidine-4-carboxamide]
inhibition at 0.01 µM: 27% | inhibition at 0.1 µM: 87% | inhibition at 1 µM: 93%

N#Cc1ccc(N2CCC(C(=O)Nc3ccc(N4CC(CN5CCC(COc6ccc7c(c6)C(=O)N(C6CCC(=O)NC6=O)C7=O)CC5)C4)cn3)CC2)cc1C(F)(F)F (stereo not drawn) [Example 149, 1-(4-cyano-3-(trifluoromethyl)phenyl)-N-(5-(3-((4-(((2-(2,6-dioxopiperidin-3-yl)-1,3-dioxoisoindolin-5-yl)oxy)methyl)piperidin-1-yl)methyl)azetidin-1-yl)pyridin-2-yl)piperidine-4-carboxamide]
inhibition at 0.01 µM: 56% | inhibition at 0.1 µM: 97% | inhibition at 1 µM: 97%

N#Cc1ccc(N2CCC(C(=O)Nc3ccc(N4CCC(OCCN5CCN(c6ccc7c(c6)C(=O)N(C6CCC(=O)NC6=O)C7=O)CC5)CC4)cn3)CC2)cc1C(F)(F)F (stereo not drawn) [Example 150, 1-(4-cyano-3-(trifluoromethyl)phenyl)-N-(5-(4-(2-(4-(2-(2,6-dioxopiperidin-3-yl)-1,3-dioxoisoindolin-5-yl)piperazin-1-yl)ethoxy)piperidin-1-yl)pyridin-2-yl)piperidine-4-carboxamide]
inhibition at 0.01 µM: 55% | inhibition at 0.1 µM: 97% | inhibition at 1 µM: 99%

N#Cc1ccc(N2CCC(C(=O)Nc3ccc(N4CCC(OCCN5CCN(c6ccc7c(c6)C(=O)N(C6CCC(=O)NC6=O)C7=O)CC5)CC4)cn3)CC2)cc1Cl (stereo not drawn) [Example 151, 1-(3-chloro-4-cyanophenyl)-N-(5-(4-(2-(4-(2-(2,6-dioxopiperidin-3-yl)-1,3-dioxoisoindolin-5-yl)piperazin-1-yl)ethoxy)piperidin-1-yl)pyridin-2-yl)piperidine-4-carboxamide]
inhibition at 0.01 µM: -14% | inhibition at 0.1 µM: 76% | inhibition at 1 µM: 92%

N#Cc1ccc(N2CCC(C(=O)Nc3ccc(N4CCC(OCCN5CCN(c6cccc7c6C(=O)N(C6CCC(=O)NC6=O)C7=O)CC5)CC4)cn3)CC2)cc1C(F)(F)F (stereo not drawn) [Example 152, 1-(4-cyano-3-(trifluoromethyl)phenyl)-N-(5-(4-(2-(4-(2-(2,6-dioxopiperidin-3-yl)-1,3-dioxoisoindolin-4-yl)piperazin-1-yl)ethoxy)piperidin-1-yl)pyridin-2-yl)piperidine-4-carboxamide]
inhibition at 0.01 µM: -46% | inhibition at 0.1 µM: 28% | inhibition at 1 µM: 29%

N#Cc1ccc(N2CCC(C(=O)Nc3ccc(N4CCC(O)(CCN5CCN(c6ccc7c(c6)C(=O)N(C6CCC(=O)NC6=O)C7=O)CC5)CC4)cn3)CC2)cc1C(F)(F)F (stereo not drawn) [Example 153, 1-(4-cyano-3-(trifluoromethyl)phenyl)-N-(5-(4-(2-(4-(2-(2,6-dioxopiperidin-3-yl)-1,3-dioxoisoindolin-5-yl)piperazin-1-yl)ethyl)-4-hydroxypiperidin-1-yl)pyridin-2-yl)piperidine-4-carboxamide]
inhibition at 0.01 µM: 56% | inhibition at 0.1 µM: 95% | inhibition at 1 µM: 97%

N#Cc1ccc(N2CCC(C(=O)Nc3ccc(N4CCC(C(=O)N5CC6(CCN(c7ccc8c(c7)C(=O)N(C7CCC(=O)NC7=O)C8=O)CC6)C5)CC4)cn3)CC2)cc1C(F)(F)F (stereo not drawn) [Example 154, 1-(4-cyano-3-(trifluoromethyl)phenyl)-N-(5-(4-(7-(2-(2,6-dioxopiperidin-3-yl)-1,3-dioxoisoindolin-5-yl)-2,7-diazaspiro[3.5]nonane-2-carbonyl)piperidin-1-yl)pyridin-2-yl)piperidine-4-carboxamide]
inhibition at 0.01 µM: 26% | inhibition at 0.1 µM: 86% | inhibition at 1 µM: 91%

N#Cc1ccc(N2CCC(C(=O)Nc3cnc(N4CCC(CN5CC6(CCN(c7ccc8c(c7)C(=O)N(C7CCC(=O)NC7=O)C8=O)CC6)C5)CC4)cn3)CC2)cc1C(F)(F)F (stereo not drawn) [Example 155, 1-(4-cyano-3-(trifluoromethyl)phenyl)-N-(5-(4-((7-(2-(2,6-dioxopiperidin-3-yl)-1,3-dioxoisoindolin-5-yl)-2,7-diazaspiro[3.5]nonan-2-yl)methyl)piperidin-1-yl)pyrazin-2-yl)piperidine-4-carboxamide]
inhibition at 0.01 µM: 38% | inhibition at 0.1 µM: 89% | inhibition at 1 µM: 98%

N#Cc1ccc(N2CCC(C(=O)Nc3cnc(N4CCC(CCN5CCN(c6ccc7c(c6)C(=O)N(C6CCC(=O)NC6=O)C7=O)CC5)CC4)cn3)CC2)cc1C(F)(F)F (stereo not drawn) [Example 156, 1-(4-cyano-3-(trifluoromethyl)phenyl)-N-(5-(4-(2-(4-(2-(2,6-dioxopiperidin-3-yl)-1,3-dioxoisoindolin-5-yl)piperazin-1-yl)ethyl)piperidin-1-yl)pyrazin-2-yl)piperidine-4-carboxamide]
inhibition at 0.01 µM: 35% | inhibition at 0.1 µM: 76% | inhibition at 1 µM: 96%

— US12122763B2, “Substituted piperidines for androgen receptor degradation” (UBIX THERAPEUTICS, INC., priority 2020, dated 2024)
